Consider eleven compounds from patent US20260184710A1, “CASITAS B-LINEAGE LYMPHOMA PROTOONCOGENE B (CBL-B) DEGRADING COMPOUNDS AND ASSOCIATED METHODS OF USE” (Arvinas Operations, Inc., priority 2022, published 2026).

Structures are written as SMILES. A value given as a limit tells only on which side of the number the result lay.

The target in assay [1] is T1, Cbl-b (Homo sapiens, UniProt Q13191).
T1 construct: Cbl-b-HiBit KI Jurkat Cells were purchased from Promega; host or cells: Cbl-b-HiBiT knock-in Jurkat cells
Briefly: Cbl-b Degradation Method A (FACS, anti-Cbl-b antibody staining). The conditions noted are these: Cbl-b-HiBit KI Jurkat Cells, incubated at least 20 hours; for DC50: half maximal degradation, read-out: Cbl-b Degredation Method A IC50; for Dmax: Jurkat, maximum degradation observed, read-out: Cbl-b Degredation Method A Dmax (%). The format is cell-based. In short, it runs like this: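 Readout is flow cytometry of fixed, permeabilized cells immunostained for Cbl-b (primary 1:200, AF488 secondary). Cells were Cbl-b-HiBit knock-in Jurkat, exposed to compound ≥20 h at 37 °C; half-maximal degradation concentration (DC50) and maximal degradation (Dmax) calculated relative to control.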
In general terms: HiBiT is a short tag that completes a luciferase, so light tracks the accessible tagged protein.

Assay [2] concerns the target T1, Cbl-b. The assay can be described thus: Cbl-b Degradation Method B (Nano-Glo HiBiT lytic detection). Format: cell-based. The conditions noted are these: Cbl-b-HiBit KI Jurkat Cells, incubated at least 6-24 hours; for DC50: half maximal degradation, read-out: Cbl-b Degredation Method B IC50; for Dmax: read-out: Cbl-b Degredation Method B Dmax (%). The gist of the method:
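An 11-point, 3-fold compound dilution was applied for 6-24 hours to Jurkat cells carrying HiBiT-tagged endogenous Cbl-b. Lytic HiBiT luminescence quantified residual protein. Outputs are DC50 and Dmax relative to DMSO control.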

T1 sequence (Q13191 whole entry): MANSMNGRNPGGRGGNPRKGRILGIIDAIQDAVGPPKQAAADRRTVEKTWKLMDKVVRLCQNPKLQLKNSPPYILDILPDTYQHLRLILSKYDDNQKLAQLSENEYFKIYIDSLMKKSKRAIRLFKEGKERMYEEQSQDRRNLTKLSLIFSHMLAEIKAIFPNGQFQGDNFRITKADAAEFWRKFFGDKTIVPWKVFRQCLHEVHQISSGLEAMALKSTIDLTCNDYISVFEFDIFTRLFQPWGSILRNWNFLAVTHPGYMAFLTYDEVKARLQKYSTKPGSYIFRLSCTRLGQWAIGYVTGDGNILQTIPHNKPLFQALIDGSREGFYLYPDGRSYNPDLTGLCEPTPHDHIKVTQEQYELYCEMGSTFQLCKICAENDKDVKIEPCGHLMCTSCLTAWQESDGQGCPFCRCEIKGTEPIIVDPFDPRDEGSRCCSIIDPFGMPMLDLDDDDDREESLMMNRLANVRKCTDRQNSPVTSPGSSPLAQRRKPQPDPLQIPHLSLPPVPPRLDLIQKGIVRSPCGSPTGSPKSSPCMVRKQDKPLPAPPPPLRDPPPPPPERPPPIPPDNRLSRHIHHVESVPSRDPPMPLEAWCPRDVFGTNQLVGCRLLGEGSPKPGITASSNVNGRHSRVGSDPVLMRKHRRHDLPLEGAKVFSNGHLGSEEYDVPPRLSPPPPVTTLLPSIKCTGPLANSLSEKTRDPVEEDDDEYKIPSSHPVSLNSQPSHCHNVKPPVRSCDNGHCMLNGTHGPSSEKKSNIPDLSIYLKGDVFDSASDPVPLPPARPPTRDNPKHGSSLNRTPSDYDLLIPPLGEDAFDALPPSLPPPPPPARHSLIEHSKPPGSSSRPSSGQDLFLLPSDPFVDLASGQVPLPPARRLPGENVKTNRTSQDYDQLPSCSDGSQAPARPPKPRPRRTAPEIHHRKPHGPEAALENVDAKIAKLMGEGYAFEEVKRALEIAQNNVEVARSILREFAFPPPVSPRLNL

For `Cc1cc(N2CCC(CN3CCC4(C3)CN(c3cc5c(c(C(F)(F)F)c3)CN(c3cccc([C@]6(Cc7nncn7C)C[C@@H](C#N)C6)c3)C5=O)C4)CC2)c(F)c2c1C(=O)N(C1CCC(=O)NC1=O)C2` (stereo partly drawn) [Example 176, (1r,3r)-3-(3-{6-[6-({1-[2-(2,6-dioxopiperidin-3-yl)-4-fluoro-7-methyl-1-oxo-2,3-dihydro-1H-isoindol-5-yl]piperidin-4-yl}methyl)-2,6-diazaspiro[3.4]octan-2-yl]-1-oxo-4-(trifluoromethyl)-2,3-dihydro-1H-isoindol-2-yl}phenyl)-3-[(4-methyl-4H-1,2,4-triazol-3-yl)methyl]cyclobutane-1-carbonitrile], the DC50 at Cbl-b [1] is 5 to 50 nM; at Cbl-b [2], below 5 nM. The Dmax at Cbl-b [1] and at Cbl-b [2] (maximum degradation observed) was 35 to 70% in each case.
In the case of `Cn1cnnc1C[C@]1(c2cccc(N3Cc4c(cc(CN5CCN(C[C@H]6CC[C@H](OC7CCN(c8ccc9c(c8)CC(=O)N9C8CCC(=O)NC8=O)CC7)CC6)CC5)cc4C(F)(F)F)C3=O)c2)C[C@H](C#N)C1` (stereo partly drawn) [Example 219, (1r,3r)-3-[(4-methyl-4H-1,2,4-triazol-3-yl)methyl]-3-(3-{1-oxo-6-[(4-{[(1r,4r)-4-({1-[1-(2,6-dioxopiperidin-3-yl)-2-oxo-2,3-dihydro-1H-indol-5-yl]piperidin-4-yl}oxy)cyclohexyl]methyl}piperazin-1-yl)methyl]-4-(trifluoromethyl)-2,3-dihydro-1H-isoindol-2-yl}phenyl)cyclobutane-1-carbonitrile], the DC50 on Cbl-b [1] and on Cbl-b [2] was below 5 nM throughout. For the same compound, the Dmax at Cbl-b [1] and on Cbl-b [2] (maximum degradation observed) was above 70% in each case.
In the case of `Cn1cnnc1C[C@]1(c2cccc(N3Cc4c(cc(N5CC6(CCN(CC7CCN(c8ccc9c(c8Cl)CN(C8CCC(=O)NC8=O)C9=O)CC7)CC6)C5)cc4C(F)(F)F)C3=O)c2)C[C@H](C#N)C1` (stereo partly drawn) [Example 173, (1r,3r)-3-(3-{6-[7-({1-[4-chloro-2-(2,6-dioxopiperidin-3-yl)-1-oxo-2,3-dihydro-1H-isoindol-5-yl]piperidin-4-yl}methyl)-2,7-diazaspiro[3.5]nonan-2-yl]-1-oxo-4-(trifluoromethyl)-2,3-dihydro-1H-isoindol-2-yl}phenyl)-3-[(4-methyl-4H-1,2,4-triazol-3-yl)methyl]cyclobutane-1-carbonitrile], the DC50 at Cbl-b [1] was 5 to 50 nM; on Cbl-b [2], below 5 nM. The results for the Dmax on Cbl-b [1] and at Cbl-b [2] (maximum degradation observed) were above 70% and 35 to 70%, respectively.
With `CC1c2c(cc(CN3CCC[C@H](CN4CCN(C[C@H]5CC[C@H](OC6CCN(c7ccc8c(c7F)CN(C7CCC(=O)NC7=O)C8=O)CC6)CC5)CC4(C)C)C3)cc2C(F)(F)F)C(=O)N1c1cccc(C2(Cc3nncn3C)COC2)c1` (stereo partly drawn) [Example 276, 3-(5-(4-(((1S,4r)-4-((3,3-dimethyl-4-(((3S)-1-((1-methyl-2-(3-(3-((4-methyl-4H-1,2,4-triazol-3-yl)methyl)oxetan-3-yl)phenyl)-3-oxo-7-(trifluoromethyl)isoindolin-5-yl)methyl)piperidin-3-yl)methyl)piperazin-1-yl)methyl)cyclohexyl)oxy)piperidin-1-yl)-4-fluoro-1-oxoisoindolin-2-yl)piperidine-2,6-dione], the DC50 on Cbl-b [1] and at Cbl-b [2] was 5 to 50 nM in each case. Besides, the Dmax (as a rule, the greatest extent of degradation seen) on Cbl-b [1] was below 35%. At Cbl-b [2] (maximum degradation observed), the “Cbl-b Degredation Method B Dmax (%)” value is listed as “C (C ≤ 35)”.
Turning to `Cn1cnnc1[C@]1(c2cccc(N3Cc4c(cc(CN5CCC[C@H](CN6CCN(C[C@H]7CC[C@@H](OC8CCN(c9ccc%10c(c9F)CN(C9CCC(=O)NC9=O)C%10=O)CC8)CC7)CC6)C5)cc4C(F)(F)F)C3=O)c2)C[C@H](C)C1` (stereo partly drawn) [Example 159, 3-[4-fluoro-1-oxo-5-(4-{[(1r,4r)-4-[(4-{[(3S)-1-[(3-oxo-2-{3-[(1s,3r)-3-methyl-1-(4-methyl-4H-1,2,4-triazol-3-yl)cyclobutyl]phenyl}-7-(trifluoromethyl)-2,3-dihydro-1H-isoindol-5-yl)methyl]piperidin-3-yl]methyl}piperazin-1-yl)methyl]cyclohexyl]oxy}piperidin-1-yl)-2,3-dihydro-1H-isoindol-2-yl]piperidine-2,6-dione], the DC50 on Cbl-b [1] and on Cbl-b [2] was below 5 nM each time. The Dmax was above 70% on Cbl-b [1] and 35 to 70% at Cbl-b [2] (maximum degradation observed).
Take `Cn1cnnc1CC1(c2cccc(N3Cc4c(cc(N5CCC6(C5)CN(c5ccc7c(c5)C(=O)N(C5CCC(=O)NC5=O)C7=O)C6)cc4C(F)(F)F)C3=O)c2)COC1` (stereo not drawn) [Example 127, 2-(2,6-dioxopiperidin-3-yl)-5-{6-[2-(3-{3-[(4-methyl-4H-1,2,4-triazol-3-yl)methyl]oxetan-3-yl}phenyl)-3-oxo-7-(trifluoromethyl)-2,3-dihydro-1H-isoindol-5-yl]-2,6-diazaspiro[3.4]octan-2-yl}-2,3-dihydro-1H-isoindole-1,3-dione]: the DC50 on Cbl-b [1] and on Cbl-b [2] was above 500 nM in each case.
For the compound `Cn1cnnc1CC1(c2cccc(N3Cc4c(cc(NCC[C@H]5CC[C@H](OC6CCN(c7ccc8c(c7F)CN(C7CCC(=O)NC7=O)C8=O)CC6)CC5)cc4C(F)(F)F)C3=O)c2)COC1` (stereo partly drawn) [Example 17, 3-[4-fluoro-5-[4-[4-[2-[[2-[3-[3-[(4-methyl-1,2,4-triazol-3-yl)methyl]oxetan-3-yl]phenyl]-3-oxo-7-(trifluoromethyl)isoindolin-5-yl]amino]ethyl]cyclohexoxy]-1-piperidyl]-1-oxo-isoindolin-2-yl]piperidine-2,6-dione], the DC50 on Cbl-b [1] and at Cbl-b [2] was above 500 nM in each case.
Turning to `C[C@H]1C[C@@H](CN2CCN(c3ccc4c(c3)C(=O)N(C3CCC(=O)NC3=O)C4=O)CC2)CN(Cc2cc3c(c(C(F)(F)F)c2)CN(c2cccc(C4(Cc5nncn5C)COC4)c2)C3=O)C1` (stereo partly drawn) [Example 85, 2-(2,6-dioxopiperidin-3-yl)-5-(4-{[(3R,5S)-5-methyl-1-{[2-(3-{3-[(4-methyl-4H-1,2,4-triazol-3-yl)methyl]oxetan-3-yl}phenyl)-3-oxo-7-(trifluoromethyl)-2,3-dihydro-1H-isoindol-5-yl]methyl}piperidin-3-yl]methyl}piperazin-1-yl)-2,3-dihydro-1H-isoindole-1,3-dione], the DC50 at Cbl-b [1] and at Cbl-b [2] was 5 to 50 nM throughout. For the same compound, on Cbl-b [2] (maximum degradation observed), the Dmax was above 70%.
As to `CC1CN(C[C@H]2CC[C@H](OC3CCN(c4ccc5c(n4)C(C)N(C4CCC(=O)NC4=O)C5=O)CC3)CC2)CCN1Cc1cc2c(c(C(F)(F)F)c1)CN(c1cccc(C3(Cc4nncn4C)CCC3)c1)C2=O` (stereo partly drawn) [Example 209, 3-[7-methyl-5-oxo-2-(4-{[(1r,4r)-4-[(3-methyl-4-{[2-(3-{1-[(4-methyl-4H-1,2,4-triazol-3-yl)methyl]cyclobutyl}phenyl)-3-oxo-7-(trifluoromethyl)-2,3-dihydro-1H-isoindol-5-yl]methyl}piperazin-1-yl)methyl]cyclohexyl]oxy}piperidin-1-yl)-5H,6H,7H-pyrrolo[3,4-b]pyridin-6-yl]piperidine-2,6-dione], the DC50 on Cbl-b [1] was 5 to 50 nM; on Cbl-b [2], below 5 nM. Besides, the Dmax at Cbl-b [1] and at Cbl-b [2] (maximum degradation observed) was 35 to 70% each time.
For the compound `C[C@@H]1CN(C[C@H]2CC[C@H](OC3CCN(c4ccc5c(c4F)CN(C4CCC(=O)NC4=O)C5=O)CC3)CC2)CCN1Cc1cc2c(c(C(F)(F)F)c1)CN(c1cccc(C3(Cc4nncn4C)COC3)c1)C2=O` (stereo partly drawn) [Example 195, 3-[4-fluoro-1-oxo-5-(4-{[(1r,4r)-4-{[(3R)-3-methyl-4-{[2-(3-{3-[(4-methyl-4H-1,2,4-triazol-3-yl)methyl]oxetan-3-yl}phenyl)-3-oxo-7-(trifluoromethyl)-2,3-dihydro-1H-isoindol-5-yl]methyl}piperazin-1-yl]methyl}cyclohexyl]oxy}piperidin-1-yl)-2,3-dihydro-1H-isoindol-2-yl]piperidine-2,6-dione], the DC50 on Cbl-b [1] and at Cbl-b [2] was below 5 nM each time. Besides, the Dmax at Cbl-b [1] was above 70%; at Cbl-b [2] (maximum degradation observed), 35 to 70%.
Take `CC1c2nc(N3CCC(O[C@H]4CC[C@H](CN5C[C@H]6C[C@@H]5CN6Cc5cc6c(c(C(F)(F)F)c5)CN(c5cccc([C@]7(Cc8nncn8C)C[C@@H](C#N)C7)c5)C6=O)CC4)CC3)ccc2C(=O)N1C1CCC(=O)NC1=O` (stereo partly drawn) [Example 217, (1r,3r)-3-[(4-methyl-4H-1,2,4-triazol-3-yl)methyl]-3-[3-(1-oxo-6-{[(1R,4R)-5-{[(1r,4r)-4-({1-[6-(2,6-dioxopiperidin-3-yl)-7-methyl-5-oxo-5H,6H,7H-pyrrolo[3,4-b]pyridin-2-yl]piperidin-4-yl}oxy)cyclohexyl]methyl}-2,5-diazabicyclo[2.2.1]heptan-2-yl]methyl}-4-(trifluoromethyl)-2,3-dihydro-1H-isoindol-2-yl)phenyl]cyclobutane-1-carbonitrile]: the DC50 is 5 to 50 nM at Cbl-b [1] and below 5 nM on Cbl-b [2]. In addition, the Dmax on Cbl-b [1] and on Cbl-b [2] (maximum degradation observed) was 35 to 70% each time.
